This note sets out measurements from ChEMBL document CHEMBL3232987, “Investigation of Ugi-4CC derived 1H-tetrazol-5-yl-(aryl) methyl piperazinyl-6-fluoro-4-oxo-1,4-dihydroquinoline-3-carboxylic acid: synthesis, biology and 3D-QSAR analysis” (Eur J Med Chem, 2014).

The test system of series [1] is Staphylococcus aureus. Nature of the series: Antibacterial activity against Staphylococcus aureus ATCC 25923 by NCCLS two-fold dilution method. In kind it is functional.
For series [2], the system named is Staphylococcus aureus. Nature of the series: Antibacterial activity against methicillin-resistant Staphylococcus aureus ATCC 700699 by NCCLS two-fold dilution method. The format is functional.
The subject of series [3] is Staphylococcus aureus. Nature of the series: Antibacterial activity against Staphylococcus aureus ATCC 29213 by NCCLS two-fold dilution method. The format is functional.
The subject of series [4] is Staphylococcus aureus. Nature of the series: Antibacterial activity against gentamicin-resistant Staphylococcus aureus ATCC 33592 by NCCLS two-fold dilution method. The format is functional.
In series [5] the test system is Staphylococcus aureus. Nature of the series: Antibacterial activity against Staphylococcus aureus ATCC 25923 after 24 hrs by spectrophotometric analysis. The format is functional, organism-based. The following applies: for IC50: read-out: IC50.
Series [6] deals with Staphylococcus aureus. The series can be described thus: Antibacterial activity against methicillin-resistant Staphylococcus aureus ATCC 700699 after 24 hrs by spectrophotometric analysis. In kind it is functional, organism-based. Particulars: for IC50: read-out: IC50.
The test system of series [7] is Staphylococcus aureus. Nature of the series: Antibacterial activity against Staphylococcus aureus ATCC 29213 after 24 hrs by spectrophotometric analysis. The format is functional, organism-based. Particulars: for IC50: read-out: IC50.
Series [8] deals with Staphylococcus aureus. Nature of the series: Antibacterial activity against gentamicin-resistant Staphylococcus aureus ATCC 33592 after 24 hrs by spectrophotometric analysis. The format is functional, organism-based. Particulars: for IC50: read-out: IC50.
Series [9] relates to Escherichia coli. The series can be described thus: Antibacterial activity against Escherichia coli by NCCLS two-fold dilution method. The format is functional.
Series [10] relates to Klebsiella pneumoniae. Nature of the series: Antibacterial activity against Klebsiella pneumoniae by NCCLS two-fold dilution method. In kind it is functional.
Series [11] deals with Escherichia coli. Nature of the series: Antibacterial activity against Escherichia coli after 24 hrs by spectrophotometric analysis. The format is functional, organism-based. Particulars: for IC50: read-out: IC50.
In series [12] the test system is Klebsiella pneumoniae. Nature of the series: Antibacterial activity against Klebsiella pneumoniae after 24 hrs by spectrophotometric analysis. Particulars: for IC50: read-out: IC50. The format is functional, organism-based.
The test system of a further series is L929. The series can be described thus: Cytotoxicity against mouse L929 cells assessed as cell viability up to MIC 0.39 ug/ml after 24 hrs by MTT assay. In kind it is cell-based. Particulars: l929, 24 h. For orientation: Formazan colour is commonly taken as a measure of viable cells.
Setting [13] is: Staphylococcus aureus, ATCC 25923.
Where [14] appears, read: Staphylococcus aureus, ATCC 25923, 24 h.
[15] abbreviates: Staphylococcus aureus, ATCC 700699, 24 h.
The mark [16] stands for this setting: Staphylococcus aureus, ATCC 29213, 24 h.
The mark [17] stands for this setting: Staphylococcus aureus, ATCC 33592, 24 h.

Converted amounts (≈) assume the structure as drawn. Bounds are passed on as bounds.

In the case of GENTAMICIN, the MIC in the series with Staphylococcus aureus [1] was 1.56 µg/mL; against Staphylococcus aureus [2] it was above 50 µg/mL; in the series with Staphylococcus aureus [3] it was above 50 µg/mL; in the series on Staphylococcus aureus [4] it was above 50 µg/mL; in the series with Staphylococcus aureus [5] it was 2.1 µg/mL; with Staphylococcus aureus [6], above 50 µg/mL. In addition, the MIC is above 50 µg/mL against Staphylococcus aureus [7]; above 50 µg/mL against Staphylococcus aureus [8]; 1.56 µg/mL with Escherichia coli [9]; 1.56 µg/mL in the series with Klebsiella pneumoniae [10]; 2.1 µg/mL against Escherichia coli [11]; 2.1 µg/mL in the series with Klebsiella pneumoniae [12].
Take `CCn1cc(C(=O)O)c(=O)c2cc(F)c(N3CCN(C(c4ccccc4)c4nnnn4C4CCCCC4)CC3)cc21` (centres undefined): in the series on Staphylococcus aureus [1], the “-logMIC” value is 5.554. Besides, the minimal inhibitory concentration (MIC) in the series with Staphylococcus aureus [1] (setting [13]) is 1.56 µg/mL (≈ 2.79 µM); with Staphylococcus aureus [2] it was 12.5 µg/mL (≈ 22.3 µM); against Staphylococcus aureus [3], 3.12 µg/mL (≈ 5.57 µM); against Staphylococcus aureus [4] it was 1.56 µg/mL (≈ 2.79 µM); with Staphylococcus aureus [5] (setting [14]), 0.8 µg/mL (≈ 1.43 µM); against Staphylococcus aureus [6] (setting [15]), 11.6 µg/mL (≈ 20.7 µM). The figures for the minimal inhibitory concentration (MIC) against Staphylococcus aureus [7] (setting [16]) and with Staphylococcus aureus [8] (setting [17]) were 1.5 µg/mL (≈ 2.68 µM) and 0.78 µg/mL (≈ 1.39 µM), respectively. In addition, the IC50 in the series with Staphylococcus aureus [5] (setting [14]) is 0.4 µg/mL (≈ 0.715 µM); in the series on Staphylococcus aureus [6] (setting [15]), 4.9 µg/mL (≈ 8.76 µM); in the series with Staphylococcus aureus [7] (setting [16]), 0.8 µg/mL (≈ 1.43 µM); in the series on Staphylococcus aureus [8] (setting [17]) it was 0.75 µg/mL (≈ 1.34 µM). In addition, the Activity entry with L929 is on record as “Non-toxic”.
As to `O=C(O)c1cn(C2CC2)c2cc(N3CCNCC3)c(F)cc2c1=O` [CIPROFLOXACIN], the minimum inhibitory concentration (MIC) was found to be 0.78 µg/mL (≈ 2.35 µM) against Staphylococcus aureus [1] (setting [13]); 0.19 µg/mL (≈ 0.573 µM) against Staphylococcus aureus [4]; 0.9 µg/mL (≈ 2.72 µM) against Staphylococcus aureus [5] (setting [14]); 20.2 µg/mL (≈ 61 µM) against Staphylococcus aureus [6] (setting [15]); 20.2 µg/mL (≈ 61 µM) in the series on Staphylococcus aureus [7] (setting [16]); 0.4 µg/mL (≈ 1.21 µM) against Staphylococcus aureus [8] (setting [17]). Besides, the MIC was 0.012 µg/mL (≈ 0.0362 µM) in the series with Klebsiella pneumoniae [10] and 0.049 µg/mL (≈ 0.148 µM) against Klebsiella pneumoniae [12] (Klebsiella pneumoniae, 24 h). In addition, the concentration for half-maximal inhibition (IC50) is 0.3 µg/mL (≈ 0.905 µM) with Staphylococcus aureus [5] (setting [14]); 16.7 µg/mL (≈ 50.4 µM) in the series on Staphylococcus aureus [6] (setting [15]); 16.7 µg/mL (≈ 50.4 µM) in the series on Staphylococcus aureus [7] (setting [16]); 0.2 µg/mL (≈ 0.604 µM) with Staphylococcus aureus [8] (setting [17]); 0.02 µg/mL (≈ 0.0604 µM) in the series with Klebsiella pneumoniae [12] (Klebsiella pneumoniae, 24 h).
Consider `CCn1cc(C(=O)O)c(=O)c2cc(F)c(N3CCN(C(c4ccncc4)c4nnnn4C4CCCCC4)CC3)cc21` (centres undefined), for which the “-logMIC” value with Staphylococcus aureus [1] is listed as 5.555. Besides, the minimal inhibitory concentration (MIC) was 1.56 µg/mL (≈ 2.78 µM) against Staphylococcus aureus [1] (setting [13]); 50 µg/mL (≈ 89.2 µM) against Staphylococcus aureus [2]; 3.12 µg/mL (≈ 5.57 µM) in the series with Staphylococcus aureus [3]; 3.12 µg/mL (≈ 5.57 µM) against Staphylococcus aureus [4]; 1.09 µg/mL (≈ 1.94 µM) against Staphylococcus aureus [5] (setting [14]); above 50 µg/mL in the series with Staphylococcus aureus [6] (setting [15]). Moreover, the minimal inhibitory concentration (MIC) in the series on Staphylococcus aureus [7] (setting [16]) is 1 µg/mL (≈ 1.78 µM); against Staphylococcus aureus [8] (setting [17]) it was 0.6 µg/mL (≈ 1.07 µM); in the series with Escherichia coli [9], 6.25 µg/mL (≈ 11.1 µM); in the series on Klebsiella pneumoniae [10], 6.25 µg/mL (≈ 11.1 µM); in the series on Escherichia coli [11] (Escherichia coli, 24 h), 4.2 µg/mL (≈ 7.49 µM); with Klebsiella pneumoniae [12] (Klebsiella pneumoniae, 24 h), 6.3 µg/mL (≈ 11.2 µM). For the same compound, the IC50 in the series with Staphylococcus aureus [5] (setting [14]) came to 0.37 µg/mL (≈ 0.66 µM); in the series on Staphylococcus aureus [6] (setting [15]), 50 µg/mL (≈ 89.2 µM); with Staphylococcus aureus [7] (setting [16]), 0.6 µg/mL (≈ 1.07 µM); in the series with Staphylococcus aureus [8] (setting [17]) it was 0.1 µg/mL (≈ 0.178 µM); with Escherichia coli [11] (Escherichia coli, 24 h), 2.1 µg/mL (≈ 3.75 µM); in the series on Klebsiella pneumoniae [12] (Klebsiella pneumoniae, 24 h), 3.5 µg/mL (≈ 6.24 µM). Also, in the series with L929, the Activity result is “Non-toxic”.
In the case of `CCn1cc(C(=O)O)c(=O)c2cc(F)c(N3CCN(C(c4ccncc4)c4nnnn4C(C)(C)C)CC3)cc21` (centres undefined), the “-logMIC” value in the series on Staphylococcus aureus [1] stood at 5.534. Moreover, the MIC with Staphylococcus aureus [1] (setting [13]) worked out at 1.56 µg/mL (≈ 2.92 µM); against Staphylococcus aureus [2], 50 µg/mL (≈ 93.5 µM); in the series on Staphylococcus aureus [3] it was 1.56 µg/mL (≈ 2.92 µM); with Staphylococcus aureus [4] it was 1.56 µg/mL (≈ 2.92 µM); in the series on Staphylococcus aureus [5] (setting [14]), 0.9 µg/mL (≈ 1.68 µM); in the series on Staphylococcus aureus [6] (setting [15]), 50 µg/mL (≈ 93.5 µM). For the same compound, the MIC is 0.9 µg/mL (≈ 1.68 µM) against Staphylococcus aureus [7] (setting [16]); 0.7 µg/mL (≈ 1.31 µM) against Staphylococcus aureus [8] (setting [17]); 25 µg/mL (≈ 46.8 µM) against Escherichia coli [9]; 25 µg/mL (≈ 46.8 µM) against Klebsiella pneumoniae [10]; 27.7 µg/mL (≈ 51.8 µM) in the series with Escherichia coli [11] (Escherichia coli, 24 h); 26 µg/mL (≈ 48.6 µM) against Klebsiella pneumoniae [12] (Klebsiella pneumoniae, 24 h). Further, the IC50 in the series on Staphylococcus aureus [5] (setting [14]) was 0.5 µg/mL (≈ 0.935 µM); in the series with Staphylococcus aureus [6] (setting [15]), 50 µg/mL (≈ 93.5 µM); with Staphylococcus aureus [7] (setting [16]), 0.6 µg/mL (≈ 1.12 µM); in the series with Staphylococcus aureus [8] (setting [17]), 0.35 µg/mL (≈ 0.655 µM); in the series on Escherichia coli [11] (Escherichia coli, 24 h) it was 20.5 µg/mL (≈ 38.3 µM); with Klebsiella pneumoniae [12] (Klebsiella pneumoniae, 24 h) it was 24 µg/mL (≈ 44.9 µM). Also, in the series on L929, the Activity result was “Non-toxic”.
As to `O=C(O)c1cn(Cc2ccc(C(F)(F)F)cc2)c2cc(N3CCN(C(c4ccco4)c4nnnn4C4CCCCC4)CC3)c(F)cc2c1=O` (centres undefined), the “-logMIC” value with Staphylococcus aureus [1] is listed as 5.939. The MIC was found to be 0.78 µg/mL (≈ 1.15 µM) in the series with Staphylococcus aureus [1] (setting [13]); 50 µg/mL (≈ 73.6 µM) in the series with Staphylococcus aureus [2]; 1.56 µg/mL (≈ 2.3 µM) against Staphylococcus aureus [3]; 0.78 µg/mL (≈ 1.15 µM) in the series with Staphylococcus aureus [4]; 0.52 µg/mL (≈ 0.765 µM) in the series on Staphylococcus aureus [5] (setting [14]); 50 µg/mL (≈ 73.6 µM) with Staphylococcus aureus [6] (setting [15]). The minimal inhibitory concentration (MIC) in the series on Staphylococcus aureus [7] (setting [16]) stood at 0.82 µg/mL (≈ 1.21 µM); in the series on Staphylococcus aureus [8] (setting [17]) it was 0.78 µg/mL (≈ 1.15 µM); in the series with Escherichia coli [9], 6.25 µg/mL (≈ 9.2 µM); in the series with Klebsiella pneumoniae [10], 6.25 µg/mL (≈ 9.2 µM); with Escherichia coli [11] (Escherichia coli, 24 h) it was 4.2 µg/mL (≈ 6.18 µM); in the series with Klebsiella pneumoniae [12] (Klebsiella pneumoniae, 24 h), 3.4 µg/mL (≈ 5 µM). The IC50 in the series on Staphylococcus aureus [5] (setting [14]) was 0.2 µg/mL (≈ 0.294 µM); with Staphylococcus aureus [6] (setting [15]), above 50 µg/mL; in the series with Staphylococcus aureus [7] (setting [16]), 0.75 µg/mL (≈ 1.1 µM); in the series on Staphylococcus aureus [8] (setting [17]), 0.4 µg/mL (≈ 0.589 µM); in the series on Escherichia coli [11] (Escherichia coli, 24 h) it was 2.9 µg/mL (≈ 4.27 µM); in the series on Klebsiella pneumoniae [12] (Klebsiella pneumoniae, 24 h) it was 1.7 µg/mL (≈ 2.5 µM). Also, the Activity entry in the series on L929 is reported as “Non-toxic”.

As usually defined, the MIC is the least concentration at which growth counts as inhibited. A lower MIC goes with greater potency. By IC50 is commonly meant the midpoint of a concentration-inhibition curve.
